Ten compounds from ChEMBL document CHEMBL5214916, “Enzyme inhibition as a potential therapeutic strategy to treat COVID-19 infection” (Bioorg Med Chem, 2021) can be followed below.

A word on the Ki: it is the dissociation constant of the complex between target and ligand, obtained from inhibition or displacement. A lower Ki goes with higher affinity. As a reminder, the IC50 is the concentration at which inhibition is half-maximal. As a reminder, the pIC50 is the negative decadic logarithm of the IC50, by convention in mol/L.

The subject of one data set is Calu-3. The data set can be described thus: Cytotoxicity against human Calu-3 cells assessed as decrease in viability at 50 uM incubated for 48 hrs by MTT assay. The class given is toxicity, cell-based. As to conditions: calu-3, 48 h. Background: Tetrazolium dyes change colour on reduction, which living cells bring about.
Data set [1] deals with Transmembrane protease serine 2 (Homo sapiens, UniProt O15393). The data set can be described thus: Inhibition of TMPRSS2 (unknown origin) expressed in Escherichia coli BL21 (DE3) using H-D cyclohexylalanine-Pro-Arg-AM as substrate by Dixon method.
The target in data set [2] is T1, Angiotensin-converting enzyme (Homo sapiens, UniProt P12821). The data set can be described thus: Inhibition of recombinant human ACE assessed as maximum inhibition using Mca-RPGFSAFK (Dnp)-OH as substrate by fluorescence plate reader assay relative to control.
Data set [3] concerns the target T2, Angiotensin-converting enzyme 2 (Homo sapiens, UniProt Q9BYF1). The data set is described as follows: Inhibition of recombinant human ACE2 assessed as maximum inhibition using 7- Mca-YVADAPK (Dnp) as substrate by fluorescence plate reader assay relative to control.
Target sequence in this assay (Q9BYF1 18-805 limits assumed): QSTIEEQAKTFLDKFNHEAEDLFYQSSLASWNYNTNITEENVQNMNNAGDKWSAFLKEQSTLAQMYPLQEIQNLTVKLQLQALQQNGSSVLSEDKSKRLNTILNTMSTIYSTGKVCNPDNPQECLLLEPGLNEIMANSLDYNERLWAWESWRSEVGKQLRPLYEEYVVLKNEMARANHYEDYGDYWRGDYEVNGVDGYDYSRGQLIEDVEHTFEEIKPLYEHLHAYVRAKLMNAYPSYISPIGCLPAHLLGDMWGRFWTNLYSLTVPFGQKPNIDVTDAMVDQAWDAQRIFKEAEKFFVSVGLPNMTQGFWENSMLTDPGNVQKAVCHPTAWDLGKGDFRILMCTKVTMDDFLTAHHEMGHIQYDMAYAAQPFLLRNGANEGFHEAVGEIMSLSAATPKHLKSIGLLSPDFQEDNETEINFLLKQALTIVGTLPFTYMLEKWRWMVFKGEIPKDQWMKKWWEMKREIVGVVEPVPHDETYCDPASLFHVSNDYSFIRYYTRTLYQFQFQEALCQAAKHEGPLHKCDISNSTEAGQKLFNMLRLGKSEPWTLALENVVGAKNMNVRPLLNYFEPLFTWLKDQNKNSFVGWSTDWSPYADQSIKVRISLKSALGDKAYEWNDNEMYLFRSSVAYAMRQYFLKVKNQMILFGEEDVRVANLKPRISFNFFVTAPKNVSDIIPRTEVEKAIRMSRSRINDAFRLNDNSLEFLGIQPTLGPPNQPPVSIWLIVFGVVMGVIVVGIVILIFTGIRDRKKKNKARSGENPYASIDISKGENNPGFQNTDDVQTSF
Data set [4] deals with T1, Angiotensin-converting enzyme. The data set is described as follows: Inhibition of recombinant human ACE using Mca-RPGFSAFK (Dnp)- OH as substrate by fluorescence plate reader assay.
The target in data set [5] is T2, Angiotensin-converting enzyme 2. The data set can be described thus: Inhibition of recombinant human ACE2 using 7-Mca-YVADAPK (Dnp) as substrate by fluorescence plate reader assay.
Target sequence in this assay (Q9BYF1 whole entry): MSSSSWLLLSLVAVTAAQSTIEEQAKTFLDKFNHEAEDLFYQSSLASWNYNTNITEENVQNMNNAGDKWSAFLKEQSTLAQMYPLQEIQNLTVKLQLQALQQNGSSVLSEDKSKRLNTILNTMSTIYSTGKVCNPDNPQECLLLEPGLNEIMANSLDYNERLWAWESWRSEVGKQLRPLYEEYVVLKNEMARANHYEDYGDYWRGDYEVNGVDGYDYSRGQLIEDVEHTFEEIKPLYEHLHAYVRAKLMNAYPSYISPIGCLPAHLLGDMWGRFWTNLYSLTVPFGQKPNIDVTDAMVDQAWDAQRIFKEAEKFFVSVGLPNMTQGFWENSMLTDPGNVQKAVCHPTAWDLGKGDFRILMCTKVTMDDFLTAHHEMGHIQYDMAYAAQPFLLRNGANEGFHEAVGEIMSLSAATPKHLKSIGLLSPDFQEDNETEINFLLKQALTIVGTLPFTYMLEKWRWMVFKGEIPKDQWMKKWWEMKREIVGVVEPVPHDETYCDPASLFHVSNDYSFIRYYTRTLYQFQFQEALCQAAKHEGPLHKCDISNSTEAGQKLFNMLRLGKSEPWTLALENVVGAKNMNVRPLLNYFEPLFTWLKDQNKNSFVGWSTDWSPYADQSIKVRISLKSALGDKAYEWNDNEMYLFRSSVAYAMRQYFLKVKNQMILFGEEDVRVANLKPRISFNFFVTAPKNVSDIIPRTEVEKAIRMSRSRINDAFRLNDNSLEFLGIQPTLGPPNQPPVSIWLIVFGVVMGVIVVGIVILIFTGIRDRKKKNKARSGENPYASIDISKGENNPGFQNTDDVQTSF
Data set [6] has as its target T1, Angiotensin-converting enzyme. The data set is described as follows: Inhibition of ACE in human MNCs assessed as maximum inhibition using substrate Mca-RPGFSAFK (Dnp)-OH as substrate by fluorescence plate reader assay relative to control. It counts as cell-based. As to conditions: Mononuclear cell line.
Data set [7] addresses T2, Angiotensin-converting enzyme 2. The data set is described as follows: Inhibition of ACE2 in human MNCs assessed as maximum inhibition using 7- Mca-YVADAPK (Dnp) as substrate by fluorescence plate reader assay relative to control. The class given is cell-based. As to conditions: Mononuclear cell line.
Target sequence in this assay (Q9BYF1 18-805 limits assumed): as the sequence (Q9BYF1 18-805 limits assumed) above
The test system of data set [8] is Influenza A virus. The data set can be described thus: Antiviral activity against human pandemic influenza virus A/Aichi/2/68 (H3N2) infected in human Calu-3 cells assessed as fold decrease in viral titre at 10 uM incubated for 24 hrs by plaque assay. The class given is functional.
The subject of data set [9] is Influenza A virus. The data set is described as follows: Antiviral activity against human pandemic influenza virus A/Aichi/2/68 (H3N2) infected in human Calu-3 cells assessed as fold decrease in viral titre at 50 uM incubated for 24 hrs by plaque assay. The class given is functional.
Data set [10] relates to Influenza A virus. The data set can be described thus: Antiviral activity against human pandemic influenza virus A/Hamburg/5/09 (H1N1) infected in human Calu-3 cells assessed as fold decrease in viral titre at 50 uM incubated for 24 hrs by plaque assay. The class given is functional.
The subject of data set [11] is Influenza A virus. The data set is described as follows: Antiviral activity against human pandemic influenza virus A/Hamburg/5/09 (H1N1) infected in human Calu-3 cells assessed as fold decrease in viral titre at 10 uM incubated for 24 hrs by plaque assay. It counts as functional.

Chain of Transmembrane protease serine 2 (O15393 1-255 limits assumed): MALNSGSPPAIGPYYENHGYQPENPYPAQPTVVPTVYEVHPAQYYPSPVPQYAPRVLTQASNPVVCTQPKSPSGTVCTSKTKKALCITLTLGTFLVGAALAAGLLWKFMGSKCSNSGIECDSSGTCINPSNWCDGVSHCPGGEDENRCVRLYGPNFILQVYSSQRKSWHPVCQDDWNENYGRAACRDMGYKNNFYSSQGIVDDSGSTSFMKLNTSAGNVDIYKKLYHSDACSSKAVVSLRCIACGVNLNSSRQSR
Chain of Transmembrane protease serine 2 (O15393 256-492 limits assumed): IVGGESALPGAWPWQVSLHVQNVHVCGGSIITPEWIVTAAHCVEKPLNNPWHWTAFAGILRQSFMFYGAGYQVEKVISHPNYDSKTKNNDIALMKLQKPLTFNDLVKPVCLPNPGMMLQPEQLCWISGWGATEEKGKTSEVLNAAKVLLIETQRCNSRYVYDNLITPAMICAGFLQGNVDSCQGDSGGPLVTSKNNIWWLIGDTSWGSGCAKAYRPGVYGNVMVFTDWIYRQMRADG
T1 sequence (P12821 whole entry): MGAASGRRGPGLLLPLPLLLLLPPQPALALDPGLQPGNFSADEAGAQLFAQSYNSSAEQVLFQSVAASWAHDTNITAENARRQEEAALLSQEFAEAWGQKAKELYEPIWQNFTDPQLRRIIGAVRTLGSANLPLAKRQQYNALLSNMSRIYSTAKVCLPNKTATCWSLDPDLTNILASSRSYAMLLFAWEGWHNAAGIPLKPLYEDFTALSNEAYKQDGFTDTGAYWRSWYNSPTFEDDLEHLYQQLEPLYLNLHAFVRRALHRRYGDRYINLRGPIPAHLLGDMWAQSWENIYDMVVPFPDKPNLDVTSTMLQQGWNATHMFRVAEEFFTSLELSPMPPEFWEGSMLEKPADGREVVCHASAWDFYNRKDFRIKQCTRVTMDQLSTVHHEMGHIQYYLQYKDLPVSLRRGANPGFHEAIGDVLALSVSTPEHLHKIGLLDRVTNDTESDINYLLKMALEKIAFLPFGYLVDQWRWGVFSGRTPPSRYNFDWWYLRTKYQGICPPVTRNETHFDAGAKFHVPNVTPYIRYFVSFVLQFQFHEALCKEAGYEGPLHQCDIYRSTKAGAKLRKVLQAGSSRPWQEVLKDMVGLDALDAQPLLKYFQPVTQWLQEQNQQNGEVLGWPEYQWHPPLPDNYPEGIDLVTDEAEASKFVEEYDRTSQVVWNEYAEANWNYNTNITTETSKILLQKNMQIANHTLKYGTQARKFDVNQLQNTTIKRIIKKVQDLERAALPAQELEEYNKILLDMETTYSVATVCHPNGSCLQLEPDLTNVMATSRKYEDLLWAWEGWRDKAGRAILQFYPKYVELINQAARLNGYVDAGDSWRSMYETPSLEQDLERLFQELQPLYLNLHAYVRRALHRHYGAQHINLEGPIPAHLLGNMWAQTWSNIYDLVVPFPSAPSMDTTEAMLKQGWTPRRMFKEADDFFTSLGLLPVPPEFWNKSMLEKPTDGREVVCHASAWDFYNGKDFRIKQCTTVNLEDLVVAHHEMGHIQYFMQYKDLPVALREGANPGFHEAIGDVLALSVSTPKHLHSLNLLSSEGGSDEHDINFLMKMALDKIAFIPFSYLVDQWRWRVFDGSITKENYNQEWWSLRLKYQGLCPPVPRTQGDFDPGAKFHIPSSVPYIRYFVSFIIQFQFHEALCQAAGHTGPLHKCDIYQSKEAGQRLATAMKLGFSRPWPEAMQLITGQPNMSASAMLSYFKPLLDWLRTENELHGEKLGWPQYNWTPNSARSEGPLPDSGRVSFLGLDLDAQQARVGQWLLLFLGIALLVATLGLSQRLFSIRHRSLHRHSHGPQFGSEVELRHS

Regarding `CNC(=O)CCCC1CCN(C(=O)[C@H](Cc2cccc(C(=N)N)c2)NS(=O)(=O)c2cccc(-c3ccc(Cl)cc3Cl)c2)CC1`, in the data set on Calu-3, the Activity was 20%.
Regarding `COc1ccc(-c2cccc(S(=O)(=O)N[C@@H](Cc3cccc(C(=N)N)c3)C(=O)N3CCC(NC(=O)NC4CCCCC4)CC3)c2)c(OC)c1`, in data set [1], affinity was put at a Ki of 3 nM. Besides, the Activity with Calu-3 stood at 20%.
As for `CNC(=O)NCCC1CCN(C(=O)[C@H](Cc2cccc(C(=N)N)c2)NS(=O)(=O)c2cccc(-c3ccc(Cl)cc3Cl)c2)CC1`, affinity in data set [1] was put at a Ki of 3 nM.
Take `N=C(N)c1cccc(C[C@H](NS(=O)(=O)c2cccc(-c3ccc(Cl)cc3Cl)c2)C(=O)N2CCC(NC(=O)NC3CCCCC3)CC2)c1`: the Ki in data set [1] is 3 nM.
`CC(C)CC(N[C@@H](Cc1cncn1Cc1cc(Cl)cc(Cl)c1)C(=O)O)C(=O)O` (mixture of isomers): the Imax worked out at 48% in data set [2], 94% in data set [3], 22% in data set [6] and 34% in data set [7]. The figures for the IC50 in data set [4] and in data set [5] were 39.8 µM and 3.16 nM, respectively.
`CC(C)C[C@H](N[C@@H](Cc1cncn1Cc1cc(Cl)cc(Cl)c1)C(=O)O)C(=O)O` [ORE-1001]: the Imax in data set [2] was determined as 46%; in [3], 80%; in data set [6] it was 34%; in data set [7] it was 63%. Besides, the pIC50 in [4] was determined as 5; in data set [5], 8.01.
For `COc1ccc(-c2cccc(S(=O)(=O)N[C@@H](Cc3cccc(C(=N)N)c3)C(=O)N3CCC(CCN)CC3)c2)c(OC)c1`, affinity in data set [1] was put at a Ki of 1 nM.
Consider `N=C(N)c1cccc(C[C@H](NS(=O)(=O)c2cccc(-c3ccc(Cl)cc3Cl)c2)C(=O)N2CCC(CCN)CC2)c1`, for which the Ki in data set [1] stood at 0.9 nM. Moreover, the “fold change (FC)” value in the data set on Influenza A virus [8] turned out to be 100; with Influenza A virus [9], 100; with Influenza A virus [10] it was 100; in the data set on Influenza A virus [11], 10.
`CC(C)C[C@@H](N[C@@H](Cc1cncn1Cc1cc(Cl)cc(Cl)c1)C(=O)O)C(=O)O`: the Imax in [2] was 49%; in data set [3] it was 93%; in [6], 20%; in data set [7] it was 35%. Also, the results for the IC50 in [4] and in data set [5] were 39.8 µM and 1.26 nM, respectively.
Consider `CNC(=O)NCCC1CCN(C(=O)[C@H](Cc2cccc(C(=N)N)c2)NS(=O)(=O)c2cccc(-c3ccc(OC)cc3OC)c2)CC1`, for which the Ki in [1] turned out to be 3 nM.
